Several values for one entry are separate records, joined by “and”; a condition that tells them apart may be missing. Identical values can stand only once. Counter-ions that a name gives are not always drawn. Like-named read-outs stand apart in the source and are kept apart here.
Columns and labels:
[1] = system: ERBB receptors, HTR2A, and downstream signaling pathways; experiment: ERBBprofiler multiplexed barcoded assay, overall statements across all receptor batches and sensors; details: PC12 cells, stimulation mix
ERBB4 [2] = details: read-out: IC50_Literature, ERBB4; cell viability overexpressing ERBB4 variants; ref Chakroborty et al., 2022; cited from earlier work
ERBB4 NFAT = experiment: ERBBprofiler barcoded NFAT pathway sensor, ERBB4 co-transfected; format: cell-based, Rattus norvegicus
ERBB4 EGR1p = experiment: ERBBprofiler barcoded EGR1p pathway sensor, ERBB4 co-transfected; details: for IC50: Rattus norvegicus, PC-12, 6 h, read-out: ERBB4 EGR1p IC50; for EGR1p (ERBB4) activity EC50 (barcode): agonist dose response, PC12 cells, ERBB4 co-transfected, barcode readout
ERBB2 [3] = system: ERBB2; parameters: method as in Schaefer et al., 2007; details: phospho-WB in NR6 cells; ref Schaefer et al., 2007; read-out: IC50_Literature, ERBB2; cited from earlier work
ERK (MAPK) = system: ERK (MAPK); parameters: method as in Schaefer et al., 2007; details: phospho-WB in NR6 cells; ref Schaefer et al., 2007; read-out: IC50_Literature, ERK (MAPK); cited from earlier work
HTR2A NFAT = experiment: ERBBprofiler barcoded NFAT pathway sensor, HTR2A co-transfected; details: for IC50: Rattus norvegicus, PC-12, 6 h, read-out: HTR2A NFAT IC50
ERBB2/3 EGR1p = experiment: ERBBprofiler barcoded EGR1p pathway sensor, ERBB2/3 co-transfected; details: read-out: ERBB2/3 EGR1p IC50
EGFR NFAT = experiment: ERBBprofiler barcoded NFAT pathway sensor, EGFR co-transfected; format: cell-based, Rattus norvegicus
ERBB2 [4] = details: read-out: IC50_Literature, ERBB2; cited from earlier work
ERBB3 = details: read-out: IC50_Literature, ERBB3; cited from earlier work
EGFR EGR1p = experiment: ERBBprofiler barcoded EGR1p pathway sensor, EGFR co-transfected; details: read-out: EGFR EGR1p IC50
HTR2A EGR1p = experiment: ERBBprofiler barcoded EGR1p pathway sensor, HTR2A co-transfected; details: read-out: HTR2A EGR1p IC50
calcium = experiment: Fluo-4 AM calcium assay in PC12 cells; format: cell-based, Rattus norvegicus; details: stimulation mix
CRE sensor = CRE sensor only luciferase assay in PC12 cells; format: cell-based, Rattus norvegicus
EGFR [5] = details: read-out: IC50_Literature, EGFR; phospho-WB in Cos 7 cells; ref Floc'h et al., 2020; cited from earlier work
ERBB2 [6] = system: ERBB2; parameters: method as in La Monica et al., 2017; details: phospho-WB in PC9/HER2c1 cells; ref La Monica et al., 2017; read-out: IC50_Literature, ERBB2; cited from earlier work
cAMP = experiment: GloSensor cAMP assay in PC12 cells; format: cell-based, Rattus norvegicus; details: Rattus norvegicus, PC-12, 0.25 h, constant stimulation mix, 15 min, cAMP increase
ERBB4 [7] = system: ERBB4; parameters: method as in Cross et al., 2014; details: commercial biochemical kinome panel (Millipore); ref Cross et al., 2014; read-out: IC50_Literature, ERBB4; cited from earlier work
HTR2A CRE = experiment: ERBBprofiler barcoded CRE pathway sensor, HTR2A co-transfected; details: read-out: CRE (HTR2A) activity EC50 (barcode); agonist dose response, PC12 cells, HTR2A co-transfected, barcode readout
NFAT (HTR2A) = experiment: NFAT pathway sensor luciferase assay, HTR2A transfected; format: cell-based, Rattus norvegicus; details: agonist dose response, PC12 cells, luciferase readout
Procedure: (§1) 50,000 PC12 cells were seeded per 96-well onto poly-L-lysin (PLL)-coated plates and transfected the following day (day in vitro 1, DIV1) with assay plasmids using Lipofectamine 3000 (Thermo Fisher Scientific). For split TEV assays, plasmids (pcDNA3 or pTag4C backbone) encoding receptor-NTEV-tcs-GV, GRB2-SH2-CTEV (for ERBB receptors) or ARBB2-1-383-CTEV (for HTR2A) (all 10 ng/well), and the p10xUAS-luc2 reporter plasmid (10 ng/well) were used. For pathway assays, the receptor plasmids (15 ng/well) and pathway reporter plasmids (15 ng/well) pEGR1p-luc2 for monitoring MAPK signaling, pCRE-CMVmin-luc2 for monitoring cAMP/Ca^2+ signaling, or p6xNFAT-CMVmin-luc2 for Ca^2+ signaling were used. Transient transfections were conducted according to the manufacturer’s instructions. On DIV2, cells were starved in medium containing 1% FCS for 16 h. […] In the case of antagonist assays, compounds were added at increasing doses together with the stimulus. Cells were lysed in 1x passive lysis buffer (Promega) and subjected to a firefly luciferase assay using a self-made substrate for firefly luciferase.[100] Luciferase activity was analyzed in a Mithras LB 940 Multimode Microplate Reader (Berthold Technologies). All assays were run in 96-well plates using six replicates per condition.

[8] = system: CRE (cAMP/Ca2+ signaling); experiment: ERBBprofiler barcoded CRE sensor only (no receptor transfected); details: Rattus norvegicus, PC-12, read-out: CRE EC50 (barcode)
CRE (HTR2A) = experiment: CRE pathway sensor luciferase assay, HTR2A transfected; format: cell-based, Rattus norvegicus; details: agonist dose response, PC12 cells, luciferase readout
Procedure: as §1

EGFR [9] = molecular target: EGFR (Homo sapiens, UniProt P00533); experiment: ERBBprofiler barcoded split TEV assay, EGFR
ERBB2/3 = ERBB2/3 (Homo sapiens, UniProt P04626+P21860); experiment: ERBBprofiler barcoded split TEV assay, ERBB2/3
EGFR CRE = experiment: ERBBprofiler barcoded CRE pathway sensor, EGFR co-transfected; details: Rattus norvegicus, PC-12, 6 h, read-out: EGFR CRE IC50
ERBB2/3 CRE = experiment: ERBBprofiler barcoded CRE pathway sensor, ERBB2/3 co-transfected; details: Rattus norvegicus, PC-12, 6 h, read-out: ERBB2/3 CRE IC50
EGR1p (ERBB4) = experiment: EGR1p pathway sensor luciferase assay, ERBB4 transfected; format: cell-based, Rattus norvegicus; details: agonist dose response, PC12 cells, luciferase readout
Procedure: as §1

[10] = molecular target: EGR1p (MAPK signaling), EGFR; experiment: EGR1p pathway sensor luciferase assay, EGFR; format: cell-based, Rattus norvegicus; details: agonist dose response, PC12 cells, luciferase readout
Procedure: as §1

[11] = molecular target: EGR1p (MAPK/ERK signaling); experiment: ERBBprofiler barcoded EGR1p sensor only (no receptor transfected); details: agonist dose response, PC12 cells, barcode readout
ERBB4 [12] = molecular target: T1, ERBB4 (Homo sapiens, UniProt Q15303); experiment: Split TEV firefly luciferase assay, ERBB4; format: cell-based; details: agonist dose response, PC12 cells, split TEV, luciferase readout
Procedure: as §1

ERBB4 [13] = molecular target: T1, ERBB4; experiment: ERBBprofiler barcoded split TEV assay, ERBB4; details: agonist dose response, PC12 cells, 6 h, split TEV, barcode readout

T1 sequence (Q15303 26-1308): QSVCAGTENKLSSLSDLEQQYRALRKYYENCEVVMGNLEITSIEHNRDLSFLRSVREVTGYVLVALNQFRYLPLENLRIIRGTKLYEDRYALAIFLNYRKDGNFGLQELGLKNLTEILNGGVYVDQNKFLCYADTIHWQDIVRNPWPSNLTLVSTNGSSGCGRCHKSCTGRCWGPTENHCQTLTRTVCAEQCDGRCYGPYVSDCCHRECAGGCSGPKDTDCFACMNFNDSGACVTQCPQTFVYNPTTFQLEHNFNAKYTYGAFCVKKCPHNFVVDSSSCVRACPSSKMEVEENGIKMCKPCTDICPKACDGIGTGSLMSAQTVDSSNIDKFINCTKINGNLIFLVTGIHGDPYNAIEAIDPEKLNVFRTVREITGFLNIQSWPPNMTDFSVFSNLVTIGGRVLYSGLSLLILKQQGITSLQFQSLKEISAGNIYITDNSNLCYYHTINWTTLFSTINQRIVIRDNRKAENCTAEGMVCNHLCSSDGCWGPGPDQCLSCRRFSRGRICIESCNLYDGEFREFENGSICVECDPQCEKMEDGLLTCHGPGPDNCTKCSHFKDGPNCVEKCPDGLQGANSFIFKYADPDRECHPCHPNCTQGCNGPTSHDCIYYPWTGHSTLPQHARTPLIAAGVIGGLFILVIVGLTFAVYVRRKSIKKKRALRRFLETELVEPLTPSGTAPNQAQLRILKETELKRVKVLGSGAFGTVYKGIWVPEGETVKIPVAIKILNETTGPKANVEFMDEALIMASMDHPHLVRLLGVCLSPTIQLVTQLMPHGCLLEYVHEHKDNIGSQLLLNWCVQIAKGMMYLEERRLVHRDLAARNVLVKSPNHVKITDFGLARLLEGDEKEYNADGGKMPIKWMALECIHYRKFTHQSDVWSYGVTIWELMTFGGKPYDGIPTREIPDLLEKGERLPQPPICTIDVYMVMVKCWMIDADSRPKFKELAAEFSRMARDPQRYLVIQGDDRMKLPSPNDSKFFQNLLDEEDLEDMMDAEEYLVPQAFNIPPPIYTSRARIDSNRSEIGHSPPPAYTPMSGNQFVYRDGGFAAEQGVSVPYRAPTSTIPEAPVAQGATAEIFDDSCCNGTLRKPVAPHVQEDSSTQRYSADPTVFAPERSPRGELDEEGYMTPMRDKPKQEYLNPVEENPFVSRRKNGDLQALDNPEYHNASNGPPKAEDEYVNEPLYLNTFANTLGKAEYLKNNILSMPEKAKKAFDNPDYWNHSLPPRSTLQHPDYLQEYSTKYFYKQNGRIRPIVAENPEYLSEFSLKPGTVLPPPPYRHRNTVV
Chain of EGFR (P00533 25-1210): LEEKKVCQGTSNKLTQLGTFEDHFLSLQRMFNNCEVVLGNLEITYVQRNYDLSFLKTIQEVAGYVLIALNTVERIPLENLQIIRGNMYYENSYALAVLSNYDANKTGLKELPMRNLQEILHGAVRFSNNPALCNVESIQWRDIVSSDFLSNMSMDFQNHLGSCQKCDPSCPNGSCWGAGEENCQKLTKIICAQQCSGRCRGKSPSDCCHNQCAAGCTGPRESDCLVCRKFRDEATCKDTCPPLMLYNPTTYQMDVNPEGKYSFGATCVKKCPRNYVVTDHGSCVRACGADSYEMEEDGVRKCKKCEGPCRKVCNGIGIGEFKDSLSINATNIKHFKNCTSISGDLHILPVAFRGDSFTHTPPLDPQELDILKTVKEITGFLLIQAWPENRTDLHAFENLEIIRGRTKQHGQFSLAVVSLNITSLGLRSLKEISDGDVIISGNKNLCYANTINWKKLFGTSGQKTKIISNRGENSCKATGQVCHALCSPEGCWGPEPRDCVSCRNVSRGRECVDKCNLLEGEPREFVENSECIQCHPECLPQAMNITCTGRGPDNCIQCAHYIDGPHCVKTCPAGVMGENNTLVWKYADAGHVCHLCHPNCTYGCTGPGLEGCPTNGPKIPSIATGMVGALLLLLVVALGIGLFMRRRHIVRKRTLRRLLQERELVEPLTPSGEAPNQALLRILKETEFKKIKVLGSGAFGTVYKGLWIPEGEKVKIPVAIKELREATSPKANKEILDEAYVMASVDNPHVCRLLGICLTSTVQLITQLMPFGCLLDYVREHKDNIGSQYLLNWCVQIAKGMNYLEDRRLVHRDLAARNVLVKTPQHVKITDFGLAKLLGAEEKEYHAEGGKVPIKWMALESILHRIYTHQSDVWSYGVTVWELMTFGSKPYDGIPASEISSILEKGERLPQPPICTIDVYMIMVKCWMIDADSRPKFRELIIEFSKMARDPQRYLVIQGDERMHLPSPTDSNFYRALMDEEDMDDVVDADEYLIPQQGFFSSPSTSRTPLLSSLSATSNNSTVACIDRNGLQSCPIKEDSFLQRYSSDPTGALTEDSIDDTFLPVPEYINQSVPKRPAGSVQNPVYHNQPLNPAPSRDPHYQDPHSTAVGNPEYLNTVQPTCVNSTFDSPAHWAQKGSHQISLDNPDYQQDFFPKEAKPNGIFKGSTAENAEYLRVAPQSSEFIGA

Q: Which “CRE sensor response at high compound concentration (barcoded)” value ([1]; 10 μM compound) does the source give for C[C@]12CCC(=O)C=C1C=C[C@@H]1[C@@H]2CC[C@@]2(C)[C@H]1CC[C@@]21CCC(=O)O1 [Canrenone] here?
A: The value was “upregulated CRE sensor response”.

Q: What about the “inhibition of ERBB receptors and pathways (barcoded ERBBprofiler), in words” value [1] of the same molecule?
A: Its value is “did not inhibit any ERBB receptor nor pathway monitored”.

Q: What does the source list for C#Cc1cccc(Nc2ncnc3cc(OCCOC)c(OCCOC)cc23)c1 [Erlotinib, Erlotinib hydrochloride]?
A: IC50 (ERBB4 [2]): […]; ERBB4 NFAT IC50 (ERBB4 NFAT): no effect (EGFR, ERBB2/3, ERBB4), 0.098 µM (HTR2A, small effect); IC50 (ERBB4 EGR1p): 698 nM; IC50 (ERBB2 [3]): […]; IC50 (ERK (MAPK)): 160 to 290 nM; IC50 (HTR2A NFAT): 98 nM; IC50 (ERBB2/3 EGR1p; Rattus norvegicus, PC-12, 6 h): 304 nM

Q: Which “EGFR NFAT IC50” value (EGFR NFAT) does the source give for CS(=O)(=O)CCNCc1ccc(-c2ccc3ncnc(Nc4ccc(OCc5cccc(F)c5)c(Cl)c4)c3c2)o1 [Lapatinib, Lapatinib (GW-572016) Ditosylate] here?
A: The value was “no effect (EGFR, ERBB2/3, ERBB4), 0.352 - 4.531 µM (HTR2A)”.

Q: And the “ERBB4 NFAT IC50” value (ERBB4 NFAT)?
A: The value was “no effect (EGFR, ERBB2/3, ERBB4), 0.352 - 4.531 µM (HTR2A)”.

Q: What about the IC50 (EGFR EGR1p; Rattus norvegicus, PC-12, 6 h) of the same molecule?
A: Its IC50 is 244 nM.

Q: And the IC50 (EGFR EGR1p)?
A: The IC50 was 122 nM and 122 to 244 nM.

Q: And the IC50 (HTR2A EGR1p; Rattus norvegicus, PC-12, 6 h)?
A: Its IC50 is 45 nM.

Q: And the IC50 (HTR2A EGR1p)?
A: The IC50 was 34 nM and 34 to 45 nM.

Q: What about the IC50 (ERBB2/3 EGR1p; Rattus norvegicus, PC-12, 6 h) of the same molecule?
A: The IC50 was 41 nM.

Q: And the IC50 (ERBB2/3 EGR1p)?
A: Its IC50 is 71 nM and 41 to 71 nM.

Q: What does the source list for C=CC(=O)Nc1cc(Nc2nccc(-c3cn(C)c4ccccc34)n2)c(OC)cc1N(C)CCN(C)C [Osimertinib, Osimertinib (AZD9291)]?
A: effect on calcium levels (Fluo-4 AM) (calcium): but not calcium levels; EGFR NFAT IC50 (EGFR NFAT): no effect (EGFR, ERBB2/3, ERBB4) - 0.772 µM (HTR2A); ERBB4 NFAT IC50 (ERBB4 NFAT): no effect (EGFR, ERBB2/3, ERBB4) - 0.772 µM (HTR2A); IC50 (ERBB4 EGR1p): 37 nM; effect on CRE sensor activity (luciferase), in words (CRE sensor; PC12 cells, CRE sensor only, stimulation mix): CRE sensor activation at high compound concentrations; EC50 (CRE sensor; Rattus norvegicus, PC-12): 3010 nM; IC50 (EGFR [5]): […]; IC50 (ERBB2 [6]): […]; IC50 (HTR2A NFAT): 772 nM; IC50 (EGFR EGR1p; Rattus norvegicus, PC-12, 6 h): 80 nM; EC50 (cAMP): 3910 nM; IC50 (ERBB4 [7]): […]; IC50 (HTR2A EGR1p; Rattus norvegicus, PC-12, 6 h): 109 nM; IC50 (ERBB2/3 EGR1p; Rattus norvegicus, PC-12, 6 h): 56 nM

Q: For NCCc1c[nH]c2ccc(O)cc12 [Serotonin, Serotonin hydrochloride], which EC50 (HTR2A CRE) is on record?
A: Its EC50 is 164 nM.

Q: What about the EC50 (NFAT (HTR2A)) of the same molecule?
A: Its EC50 is 61 nM.

Q: And the EC50 (HTR2A NFAT; read-out: NFAT (HTR2A) activity EC50 (barcode), agonist dose response, PC12 cells, HTR2A co-transfected, barcode readout)?
A: The EC50 was 73 nM.

Q: And the EC50 [8]?
A: The EC50 was 167 nM.

Q: What about the EC50 (CRE (HTR2A)) of the same molecule?
A: The EC50 was 465 nM.

Q: Which IC50 (ERBB4 EGR1p) does the source give for CC(=O)S[C@@H]1CC2=CC(=O)CC[C@]2(C)[C@H]2CC[C@@]3(C)[C@@H](CC[C@@]34CCC(=O)O4)[C@H]12 [Spironolactone] here?
A: Its IC50 is greater than 10000 nM.

Q: What about the IC50 (EGFR [9]) of the same molecule?
A: Its IC50 is greater than 10000 nM.

Q: And the IC50 (ERBB2/3)?
A: Its IC50 is greater than 10000 nM.

Q: And the IC50 (EGFR CRE)?
A: The IC50 was 8.41 nM.

Q: And the IC50 (ERBB2/3 CRE)?
A: Its IC50 is 905 nM.

Q: With “Heregulin-β1 (EGF Domain) human (EGF-like domain) [EGFld]” as the molecule, how does the “EGR1p (ERBB4) activity EC50 (barcode)” value (ERBB4 EGR1p) read?
A: Its value is 0.607 ng/mL.

Q: What about the “EGR1p (ERBB4) activity EC50 (luciferase)” value (EGR1p (ERBB4)) of the same molecule?
A: The value was 0.384 ng/mL.

Q: With hEGF as the molecule, how does the “EGR1p activity EC50 (luciferase)” value [10] read?
A: The value was 0.161 ng/mL.

Q: What about the “EGR1p activity EC50 (barcode)” value [11] of the same molecule?
A: Its value is 0.089 ng/mL.

Q: What about the “EGR1p (ERBB4) activity EC50 (barcode)” value (ERBB4 EGR1p) of the same molecule?
A: The value was 0.093 ng/mL.

B1: Heregulin-β1 (EGF Domain) human (EGF-like domain) (protein)
chain: TSHLVKCAEKEKTFCVNGGECFMVKDLSNPSRYLCKCPNEFTGDRCQNYVMASFYKHLGIEFMEAEELYQK
modifications: three disulfides
notes: EGF-like domain, ligand for ERBB3 and ERBB4
Q: What does the source list for B1?
A: ERBB4 activity EC50 (luciferase) (ERBB4 [12]): 0.700 ng/mL; ERBB2/3 EC50 (barcode) (ERBB2/3; agonist dose response, PC12 cells, 6 h, split TEV, barcode readout): 0.143 ng/mL; ERBB4 activity EC50 (barcode) (ERBB4 [13]): 1.372 ng/mL
